We go through one compound from article PMC11375702, “Early Preclinical Studies of Ergosterol Peroxide and Biological Evaluation of Its Derivatives” (ACS Omega, 2024).

≈ marks a conversion by molar mass, not a printed value.

Data set [1] can be described thus: Plasma protein binding, rapid equilibrium dialysis (human). It counts as in vitro ADME. On the procedure:
(§1) This assay determines the plasma protein binding of a drug or compound and free drug concentration in plasma using rapid equilibrium dialysis. We use the Single-Use RED (rapid equilibrium dialysis, Thermo Scientific) devices to allow the aqueous component of plasma containing the free drug/compound through a dialysis membrane (MWCO ∼ 8000). Sample quantification is determined using a Waters ACQUITY-SOQ UPLC-MS-ELDS-UV system.
Background: Equilibrium dialysis compares concentrations on both sides of a semipermeable membrane.

The nature of data set [2]: Metabolic stability in human liver microsomes. It counts as in vitro ADME. Background: Microsomes from liver hold many membrane-bound enzymes, among them those of drug oxidation.
Experimental: (§5) Human and/or mouse microsomal degradation was determined using multiple time points to monitor the rate of disappearance of the parent compound during incubation following the method described by Di et al.[51],[52] […] The metabolic stability was evaluated via the half-life from the least-squares fit of the multiple time points based on first-order kinetics. Waters ACQUITY-TOQ UPLC-MS-MS-UV system was used to analyze the samples as established in various MS core facilities.[51],[52]
For data set [3], the system named is SUM149. The data set can be described thus: CellTiter-Glo 72 h cytotoxicity assay, SUM149. It counts as cell-based. As to conditions: Homo sapiens. The source says:
(§2) First, topological polar surface area (tPSA), a widely used molecular descriptor that provides insight into compound absorption and membrane penetration, was theoretically calculated for these compounds along with the estimated c log P (partition coefficient) or log P to further assess their global therapeutic potential.[18],[19] Lipophilicity, a measurable and predictable physical property, can provide practical guidance in designing compounds with improved molecular properties.[20] The tPSA sums the contribution of the surface area of polar atoms, enabling us to determine whether the compounds are more likely to be cell membrane permeable. The aqueous solubility was measured by ultraviolet/visible (UV/vis) spectroscopy.[21] […] EP shares an improved cLogP, but still relatively high from a desirable drug candidate (2.5–3.5). […] Compound 4 has a higher c log P, while compounds 5–10 have lower c log P values. To determine LiPE (lipophilicity efficiency), the following formula was used: LiPE = pIC50 – log P, according to established methods.[22],[23] […] The obtained EC50 values for the newly generated EP derivatives were within a similar range for other derivatives previously described against TNBC models.[17]
(§3) The following stable human cell lines were utilized for this study: SUM149 and MDA-MB-231 (breast cancer models) and BJ (human normal fibroblast, foreskin). Cells were purchased from BioIVT or the American Type Culture Collection (ATCC). Cells were cultured in F-12-Nutrient Mixture (SUM149), DMEM (MDA-MB-231), or EMEM (BJ) medium supplemented with 10% fetal bovine serum (Sigma-Aldrich, St. Louis, MO) and 2 mmol of L-glutamine, at 37 °C in a humidified 5% CO2 atmosphere (no antibiotics) as indicated by the manufacturer. Cell cultures were grown to 80–90% confluence before use, except where otherwise specified. Our cell lines are authenticated every 3 months using the CellCheck service (Idexx BioResearch, Westbrook, ME). Cells were tested for mycoplasma prior to use (MycoAlert detection Kit Lonza LT07–318) and discarded if they tested positive. A cell proliferation assay was performed using the CellTiter-Glo (Promega Corp., Madison, WI) luminescent cell viability assay kit. Cells were detached with trypsin, counted, and seeded in white polystyrene flat-bottom sterile 96-well tissue culture-treated plates (catalog no. 3917, Corning, Glendale, Arizona) and incubated overnight at 37 °C. MDA-MB231, SUM149, and BJ cells were seeded into 96-well plates at concentrations experimentally determined (0.4 × 10^4, 0.25 × 10^4, and 0.3 × 10^4 cells per well, respectively) to ensure logarithmic growth during the duration of the experiment and to prevent adverse effects on cell growth by DMSO exposure. The plates were incubated for 12 h before treatment. Stock solutions of test compounds (10 mM in DMSO) in nine 3-fold serial dilutions were dispensed. The final concentration of DMSO was 0.3% (v/v) in each well. The positive control used was staurosporine (10 μM) as the kill-all control, and the negative control used is DMSO as we have published. Staurosporine is a potent alkaloid inducer of various cell death modalities but primarily apoptosis, making it a reliable positive control for viability assays. The plates were incubated for 72 h and then quenched with CTG at 50 μL per well at RT. Plates were then incubated at RT for 20 min and centrifuged at 1000 rpm for 1 min. Luminescence was read on a CLARIOstar Plus plate reader (BMG LabTech, Ortenberg, Germany).
Three or four technical replicates were conducted for each experimental condition, and a minimum of three independent experiments were conducted for each assay. In vitro ADME values were expressed as mean ± standard deviation (SD) of at least three independent experiments. One-way analysis of variance (ANOVA) was adopted for comparisons among groups using the GraphPad Prism 10.2.3 (GraphPad Software, San Diego, CA). A difference of P < 0.05 was considered as statistically significant. […]
For orientation: Cellular ATP, detected with luciferase, serves as a proxy for viable cell number.

Data set [4] is described as follows: in vitro. The conditions noted are these: human, plasma.
For data set [5], the system named is MDA-MB-231. The data set can be described thus: CellTiter-Glo 72 h cytotoxicity assay, MDA-MB-231. The class given is cell-based. As to conditions: Homo sapiens, CTG assay, read-out: MDA-MB231 (EC50). On the procedure: as §3
(§4) Three or four technical replicates were conducted for each experimental condition, and a minimum of three independent experiments were conducted for each assay. In vitro ADME values were expressed as mean ± standard deviation (SD) of at least three independent experiments. One-way analysis of variance (ANOVA) was adopted for comparisons among groups using the GraphPad Prism 10.2.3 (GraphPad Software, San Diego, CA). A difference of P < 0.05 was considered as statistically significant. Data are expressed as mean ± SEM. For CTG, the mean luminescence of each experimental treatment group was normalized as a percentage of the mean intensity of untreated controls (DMSO as vehicle). EC50 values were calculated from dose–response curve fitting via nonlinear regression using GraphPad Prism 10.2.3 (GraphPad Software, San Diego, CA). A therapeutic index (TI) between normal and tumor cell lines can be determined (EC50 non-neoplastic cell line BJ)/(EC50 cancer cell line). In vivo studies were analyzed using mixed-effects regression models to compare the changes in tumor volume over time by treatment group. Tumor volume reduction was compared using ANOVA with repeated measures, and all data was considered significant when P < 0.05.

Data set [6] in a line: Aqueous solubility by UV/vis absorbance. The class given is physicochemical. As to conditions: water, kinetic from dmso stock.
From the text: as §2
Briefly, clear 96-well PS plates with lids (catalog no. 3903, Corning, Glendale, Arizona) were used for spectrophotometric determination of absorbance with a CLARIOstar Plus plate reader (BMG LabTech, Ortenberg, Germany) to determine at which concentration the compounds are precipitating out of solution. Decrease in transmittance of 2% or higher was considered significant. Compound solutions of 10 mM in DMSO were prepared followed by a serial dilution series, which were vortexed to ensure the solutions were homogeneous. The 96-well plate was then prepared with distilled H2O and allowed to equilibrate for 1.5 h. Then, the plate was placed in a CLARIOstar Plus plate reader or Cytation C10 (Biotek, Agilent) and set to detect absorbance at 220–700 nm. Each well was read individually. Three replicate assays were conducted for each experimental condition, and a minimum of three independent experiments were conducted.

The subject of data set [7] is BJ. The data set can be described thus: CellTiter-Glo 72 h cytotoxicity assay, BJ normal fibroblasts. The class given is cell-based. The conditions noted are these: Homo sapiens, CTG assay, noncancerous fibroblasts. On the procedure:
as §3, §4

Data set [8] in a line: Metabolic stability in mouse liver microsomes. The class given is in vitro ADME.
Experimental: as §5
A short description of data set [9]: in vitro. The conditions noted are these: male, Balb/c, mouse, plasma.
Experimental: Briefly, pooled blood from 3 animals for experiment (male Balb/c 6–8w from the division of laboratory animal medicine in-house breeding colony) was collected, and the heparinized plasma was prepared. Plasma and test compounds were added to individual wells of a 96-well microtiter plate. Compounds were incubated at 37 °C for the provided time points. All tests were performed in triplicates. The test compound was incubated with plasma at six different time points. The reaction was terminated by methanol containing an internal standard. After centrifugation, the concentration of the test compound in the supernatant was quantified by LC-MS/MS.
Plasma stability assay: Briefly, pooled blood from 3 animals for experiment (male Balb/c 6-8w
from the division of laboratory animal medicine in-house breeding colony) was collected, and
the heparinized plasma was prepared. Plasma and test compounds were added to the individual
wells of a 96-well microtiter plate. Compounds were incubated at 37°C for the provided time
points. All tests were performed in triplicates. Then, the test compound was incubated with
plasma at six different time points. The reaction was terminated by the addition of methanol
containing an internal standard. After centrifugation, the concentration of the test compound in
the supernatant was quantified by LC-MS/MS. The percentage of test compound remaining at
compounds are known to be metabolized by plasma esterases,1 and were also incubated with
each batch of test compound.
A standard protocol and MS method was used for the plasma stability experiment. The extraction
procedure for plasma/tissue samples and the spiked plasma/tissue calibration standards were
identical: A 25 µL of study sample or spiked plasma/tissue calibration standard was added to
individual pre-labeled micro-centrifuge tubes followed by 100 µL of internal standard prepared
in Acetonitrile (Albendazole, 500 ng/mL) was added except for blank, where 100 µL of
Acetonitrile was added. Samples were vortexed for 5 minutes. Samples were centrifuged for 5
minutes at a speed of 4000 rpm at 4°C. Following centrifugation, 100 µL of clear supernatant
was transferred in 96 well plates and analyzed using LC-MS/MS mode. The LC system
comprises of a binary pump that can mix two mobile phases: A = Water+0.1% formic acid; B =
acetonitrile +0.1%formic acid. The system was operated in gradient mode using a 6 minute
min, 10-90% A to B in 5.5-6 min, and then hold at this gradient, using a Phenomenex Luna, 150
X 4.6 mm, 5 µm column. Source Parameter: positive, Ion Spray Voltage 5500, Temperature
550C, interface heater on.
Data set [10] is described as follows: Plasma protein binding, rapid equilibrium dialysis (mouse). It counts as in vitro ADME. On the procedure: as §1

Regarding `CC(C)[C@@H](C)/C=C/[C@@H](C)[C@H]1CC[C@@H]2[C@]1(C)CC[C@H]1[C@]23C=C[C@]2(C[C@@H](OC(=O)NS(=O)(=O)c4ccccc4)CC[C@]12C)OO3` [Compound 7], the results for the free fraction (fraction unbound) in [1] and in data set [10] were 0.0062 and 0.0017, respectively. In addition, the “metabolic stability (human) clint” value in data set [2] turned out to be 24.91 mL/Min/K g. Besides, the half-life in data set [2] (both sexes, pooled liver microsomes, read-out: metabolic stability (human) t1/2 (converted)) is 49.8 min; in [4] it was more than 48 h; in [8] (female, CD-1, pooled liver microsomes, read-out: metabolic stability (mouse) t1/2 (converted)), 54 min; in data set [9], more than 48 h. The concentration giving a half-maximal response (EC50) amounted to 5.6 µM in data set [3] (SUM149, CTG assay, 72 h); 12 µM in data set [5]; 47.1 µM in [7]. Also, the IC50 in data set [3] (calculated from SUM149 EC50) is 5.62 µM. This compound also displayed a solubility at […] in [6] of 26.8 µg/mL (≈ 43.7 µM). In addition, in data set [8], the “metabolic stability (mouse) clint” value came out at 63.82 mL/Min/K g.

Usually fraction unbound stands for free concentration divided by total concentration. By EC50 is commonly meant the concentration needed to bring the measured effect to its halfway point. As usually defined, the IC50 is the concentration that gives 50% inhibition. The solubility is the concentration that dissolves in the medium under given conditions.
